Experimental data reported in US20240058328A1, “MASITINIB FOR THE TREATMENT OF ALZHEIMER'S DISEASE” (AB SCIENCE, priority 2020, published 2024).

Test system: patients with Alzheimer's disease
Test: Phase 3 study AB09004: change from baseline in ADAS-Cog score
Type: in vivo, human
Design: key to δLSM (ADAS-Cog) / 8LSM (ADAS-Cog): LSM diff. of ADAS-Cog change from baseline; negative = improvement
Conditions: for ALSM (ADAS-Cog) / 8LSM (ADAS-Cog) / ΔLSM (ADAS-Cog) / δLSM (ADAS-Cog): 4.5 mg/kg/day; for ALSM (ADAS-Cog) / ΔLSM (ADAS-Cog): vs placebo, week 24; for 8LSM (ADAS-Cog) / δLSM (ADAS-Cog): week 24 from baseline
Protocol: An international, multicenter, randomized, double-blind, placebo-controlled phase 3 study was conducted with the objective to evaluate oral masitinib at a dose of 4.5 mg/kg/day as a treatment for Alzheimer's disease.
Eligible patients, aged at least 50 years, were diagnosed with dementia of Alzheimer's type according to Diagnostic and Statistical Manual of Mental Disorders (DSM)-IV criteria, and probable Alzheimer's disease according to NINCDS-ADRDA (National Institute of Neurological and Communicative Diseases and Stroke/Alzheimer's Disease and Related Disorders Association) criteria. […] Patients with any other cause of dementia not due to Alzheimer's disease were ineligible for the study.
Eligible patients were treated during 24 weeks with masitinib at a dose of 4.5 mg/kg/day (mg per kilo body weight per day) or with placebo. Treatment was administered as add-on therapy in patients who had been treated for a minimum of 6 months with a stable dose of cholinesterase inhibitors (donepezil, rivastigmine or galantamine) and/or memantine, with no changes foreseen in therapy throughout the study.
Primary analysis was based on the co-primary endpoints of: • Change from baseline in Alzheimer's Disease Cooperative Study Activities of Daily Living (ADCS-ADL) score. The ADCS-ADL assesses the competence of patients with Alzheimer's disease in basic and instrumental activities of daily living (ADLs). • Change from baseline in Alzheimer's Disease Assessment Scale-Cognitive Subscale (ADAS-Cog). The ADAS-Cog assesses cognition and memory.
Treatment effect (masitinib versus placebo) was assessed based on absolute change from baseline to week 24 by using an analysis of covariance model (ANCOVA linear model) with the following factors: treatment, baseline value, and stratification criteria of baseline MMSE score, age, ADCS-ADL total score, and ADAS-Cog total score.
The ADAS-Cog version used in study AB09004 included 11 items regrouped as follows: language (items 1, 2, 3), praxia and gnosia (items 5, 7, 8, 9), memory (items 4, 10, 11), orientation (item 6). The items range either from 0 to 5 (items 1, 2, 3, 5, 7, 8, 9, 11), or from 0 to 8 (item 6), or from 0 to 10 (item 4), or from 0 to 12 (item 10). The global score, which is the sum of the 11 items, ranges from 0 to 70, with higher scores indicating greater cognitive impairment. Results are expressed as a least-squares means difference (δLSM) of absolute change in ADAS-Cog score from baseline; that is to say, the change over time in the ADAS-Cog score, or in other words the difference between the ADAS-Cog score at baseline and the ADAS-Cog score after treatment with masitinib or with placebo. A decrease in ADAS-Cog score with respect to baseline (i.e., a negative δLSM) indicates an improvement in the patient and therefore disease stability, whereas an increase in ADAS-Cog score with respect to baseline (i.e., a positive δLSM) indicates a worsening in the patient and therefore disease progression. Treatment-effect is reported as the difference between treatment-arms (ΔLSM) (calculated as δLSM[masitinib] minus δLSM[placebo]), with a negative value indicating a beneficial effect of treatment with masitinib as compared with placebo. In a scenario where both treatment-arms show worsening in cognitive function (i.e., a positive δLSM), then a negative ΔLSM indicates a beneficial treatment effect for masitinib, i.e., the rate of decline in masitinib treated patients is slower than that of patients from the placebo-arm. […]

**Q.** Which results are given for Cc1ccc(NC(=O)c2ccc(CN3CCN(C)CC3)cc2)cc1Nc1nc(-c2cccnc2)cs1 [masitinib, 4-(4-methylpiperazin-1-ylmethyl)-N-[4-methyl-3-(4-pyridin-3ylthiazol-2-ylamino)phenyl]benzamide]?
**A.** ALSM (ADAS-Cog) (Baseline ADAS-Cog >32): −1.6044 points; 8LSM (ADAS-Cog) (Baseline ADAS-Cog >32): −7.2739; ALSM (ADAS-Cog) (Baseline ADAS-Cog >40): −0.2351 points; 8LSM (ADAS-Cog) (Baseline ADAS-Cog >40): −4.9348; ALSM (ADAS-Cog) (Baseline ADAS-Cog ≤32): −2.1011 points; 8LSM (ADAS-Cog) (Baseline ADAS-Cog ≤32): −1.5266; ALSM (ADAS-Cog) (Baseline ADAS-Cog ≤40): −2.3299 points; 8LSM (ADAS-Cog) (Baseline ADAS-Cog ≤40): −1.4472; ΔLSM (ADAS-Cog) (Diagnosis >2 years): −1.3581 points; δLSM (ADAS-Cog) (Diagnosis >2 years): −1.2197; ΔLSM (ADAS-Cog) (Diagnosis >3 years): −0.3770 points; δLSM (ADAS-Cog) (Diagnosis >3 years): −0.7048; ΔLSM (ADAS-Cog) (Diagnosis >4 years): −1.3426 points; δLSM (ADAS-Cog) (Diagnosis >4 years): −1.2607; ΔLSM (ADAS-Cog) (Diagnosis >5 years): −1.4470 points; δLSM (ADAS-Cog) (Diagnosis >5 years): −1.4756; ΔLSM (ADAS-Cog) (Diagnosis ≤2 years): −2.7754 points; δLSM (ADAS-Cog) (Diagnosis ≤2 years): −1.6958; ΔLSM (ADAS-Cog) (Diagnosis ≤3 years): −2.8700 points; δLSM (ADAS-Cog) (Diagnosis ≤3 years): −1.7671; ΔLSM (ADAS-Cog) (Diagnosis ≤4 years): −2.3435 points; δLSM (ADAS-Cog) (Diagnosis ≤4 years): −1.4948; ΔLSM (ADAS-Cog) (Diagnosis ≤5 years): −2.2599 points; δLSM (ADAS-Cog) (Diagnosis ≤5 years): −1.4394; ΔLSM (ADAS-Cog) (MMSE <13): −0.4996 points; δLSM (ADAS-Cog) (MMSE <13): 2.1702; ΔLSM (ADAS-Cog) (MMSE <14): 1.0497 points; δLSM (ADAS-Cog) (MMSE <14): 3.6165; ΔLSM (ADAS-Cog) (MMSE <15): −1.0976 points; δLSM (ADAS-Cog) (MMSE <15): 1.5482; ΔLSM (ADAS-Cog) (MMSE <16): −1.0624 points; δLSM (ADAS-Cog) (MMSE <16): 0.8538; ΔLSM (ADAS-Cog) (MMSE <17): −1.0127 points; δLSM (ADAS-Cog) (MMSE <17): 0.9251; ΔLSM (ADAS-Cog) (MMSE [12-20]): −1.7387 points; δLSM (ADAS-Cog) (MMSE [12-20]): −1.0350; ΔLSM (ADAS-Cog) (MMSE [25-21]): −2.8929 points; δLSM (ADAS-Cog) (MMSE [25-21]): −2.4719; ΔLSM (ADAS-Cog) (MMSE ≥13): −2.1488 points; δLSM (ADAS-Cog) (MMSE ≥13): −1.4717; ΔLSM (ADAS-Cog) (MMSE ≥14): −2.4192 points; δLSM (ADAS-Cog) (MMSE ≥14): −1.8028; ΔLSM (ADAS-Cog) (MMSE ≥15): −2.2577 points; δLSM (ADAS-Cog) (MMSE ≥15): −1.8834; ΔLSM (ADAS-Cog) (MMSE ≥16): −2.2907 points; δLSM (ADAS-Cog) (MMSE ≥16): −2.0435; ΔLSM (ADAS-Cog) (MMSE ≥17): −2.4915 points; δLSM (ADAS-Cog) (MMSE ≥17): −2.3004; ΔLSM (ADAS-Cog) (Overall Population): −2.1485 points; δLSM (ADAS-Cog) (Overall Population): −1.4550; Δsub/Δoverall (ratio of ΔLSM (ADAS-Cog) at W24, Diagnosis ≤2 years vs overall study population): 1.29; Δsub/Δoverall (ratio of ΔLSM (ADAS-Cog) at W24, Diagnosis ≤3 years vs overall study population): 1.34; Δsub/Δoverall (ratio of ΔLSM (ADAS-Cog) at W24, Diagnosis ≤4 years vs overall study population): 1.09; Δsub/Δoverall (ratio of ΔLSM (ADAS-Cog) at W24, Diagnosis ≤5 years vs overall study population): 1.05; Δsub/Δoverall (ratio of ΔLSM (ADAS-Cog) at W24, MMSE [20-12] vs overall study population): 0.81; Δsub/Δoverall (ratio of ΔLSM (ADAS-Cog) at W24, MMSE [25-21] vs overall study population): 1.35; Δsub/Δoverall (percentage improvement) (ΔLSM (ADAS-Cog) at W24, Diagnosis ≤2 years vs overall study population): 29%; Δsub/Δoverall (percentage improvement) (ΔLSM (ADAS-Cog) at W24, Diagnosis ≤2 years vs overall study population, listed as M4.5): (29%); Δsub/Δoverall (percentage improvement) (ΔLSM (ADAS-Cog) at W24, Diagnosis ≤3 years vs overall study population): 34%; Δsub/Δoverall (percentage improvement) (ΔLSM (ADAS-Cog) at W24, Diagnosis ≤3 years vs overall study population, listed as M4.5): (34%); Δsub/Δoverall (percentage improvement) (ΔLSM (ADAS-Cog) at W24, Diagnosis ≤4 years vs overall study population): (9%); Δsub/Δoverall (percentage improvement) (ΔLSM (ADAS-Cog) at W24, Diagnosis ≤5 years vs overall study population): (5%); Δsub/Δoverall (percentage improvement) (ΔLSM (ADAS-Cog) at W24, MMSE [20-12] vs overall study population): (−19%); Δsub/Δoverall (percentage improvement) (ΔLSM (ADAS-Cog) at W24, MMSE [25-21] vs overall study population): 35%; Δsub/Δoverall (percentage improvement) (ΔLSM (ADAS-Cog) at W24, MMSE [25-21] vs overall study population, listed as M4.5): (35%); improved benefit relative to complementary subpopulation (ΔLSM (ADAS-Cog), baseline MMSE 25 to 21 relative to MMSE 20 to 12, printed as 'between 99% to 66%'): 66%
